Reference: publication PMC11868366 (Communications Biology, 2025)

Molecular target: S6MTHFR (Sphingobium sp. SYK-6, UniProt G2IQS8)
Test: X-ray crystal structure of CH3-THF complex, […] Å
Assay type: binding
Settings: FAD bound as purified; pH 4.5

S6MTHFR, sequence (G2IQS8 2-288): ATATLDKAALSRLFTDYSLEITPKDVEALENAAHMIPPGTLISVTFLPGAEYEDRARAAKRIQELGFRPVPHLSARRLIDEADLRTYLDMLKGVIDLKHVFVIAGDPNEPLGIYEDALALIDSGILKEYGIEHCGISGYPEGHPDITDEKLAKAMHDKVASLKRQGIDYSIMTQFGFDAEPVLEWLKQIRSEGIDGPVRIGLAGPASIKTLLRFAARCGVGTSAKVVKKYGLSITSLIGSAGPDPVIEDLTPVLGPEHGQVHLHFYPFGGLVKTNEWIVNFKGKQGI

## Cc1cc2nc3c(=O)[nH]c(=O)nc-3n(C[C@H](O)[C@H](O)[C@H](O)COP(=O)(O)OP(=O)(O)OC[C@H]3O[C@@H](n4cnc5c(N)ncnc54)[C@H](O)[C@@H]3O)c2cc1C [FAD]
  X-ray crystal structure of CH3-THF complex, 1.85 Å: FAD and the experimentally observed part of the CH3-THF molecule are shown by stick models
